# Experimental data as given in patent publication US4762706A, “Peptide antibodies and their use in detecting oncogene products” (priority 1984, dated 1988).
# Molecular target: T1, v-Ki-ras p21 protein (serine at position 12) (Kirsten murine sarcoma virus, UniProt P01117)
# T1 construct: made in house; host or cells: E. coli (plasmid pINIII-ras, a gift; lac promoter, IPTG induction)
# Test: Inhibition by nucleotide of anti-p21ser antibody binding to p21 protein (immunoprecipitation under mild denaturation conditions)
# Settings: high concentrations (10 mM) of nucleotide
# Excerpt: In this example the antibody was used to immunoprecipitate a form of p21 protein which is known to contain serine at position 12. This protein is a E. coli expressing v-Ki-ras p21 protein (produced using a plasmid pINIII-ras which was constructed by and was a gift from M. Inouge of SUNY at Stony Brook, New York in which transcription was directed by the lac promoter--see Masui, Y. et al., in Experimental Manipulation of Gene Expression, M. Inogue, ed., Academic Press, N.Y., pp 15-32 (1983). Expression of this protein was induced by treatment of the cultures with 2 mM isopropylthiogalactoside (IPTG). Cell pellets were resuspended in 50 mM glucose, 25 mM Tris.HCl pH 8.0, 10 mM EDTA, 2 mg/ml lysozyme, and 0.01% aprotinin, and were then incubated for 30 minutes at 4° C. Triton X-100 was added to 1% concentration for 5 additional minutes. Following a 10-minute 15,000 xg spin, the supernatant was spun for an additional 2 hours at 150,000 xg to prepare the cleared lysate. One hundred-μl samples of the cleared cell lysate were incubated with 40 μCi ^32 P gamma-labeled guanosine triphosphate (GTP) for 30 minutes at 37° C. […] Immune complexes were washed with 0.5% NP40, 1M LiCl, 50 mM Tris.HCl, pH 8.0, 120 mM NaCl, and analyzed by SDS-PAGE. […]
# T1 sequence (P01117 whole entry): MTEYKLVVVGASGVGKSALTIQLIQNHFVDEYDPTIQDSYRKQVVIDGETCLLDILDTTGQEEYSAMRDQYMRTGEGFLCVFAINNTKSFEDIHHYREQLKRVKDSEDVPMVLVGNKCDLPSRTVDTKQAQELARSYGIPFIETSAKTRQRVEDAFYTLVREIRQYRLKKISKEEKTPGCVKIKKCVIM
smiles,measurement,value
"Nc1nc2c(ncn2[C@@H]2O[C@H](COP(=O)(O)OP(=O)(O)OP(=O)(O)O)[C@@H](O)[C@H]2O)c(=O)[nH]1 [GTP, guanosine triphosphate]",inhibition of the binding of anti-p21ser antibodies to p21 protein,substantially inhibit
